Assay results reported in patent US20260275292A1, “MATURATION MEDIUM COMPOSITIONS AND METHODS FOR HUMAN HEART ORGANOID MATURATION” (Board of Trustees of Michigan State University, priority 2022, published 2026).
Structures can show the parent of a compound that is named as a salt. Blank lines part the entries; values can stand above or below the molecule they belong to.

What was measured:
[1] = system: human heart organoids; test: Real time RT-PCR gene expression in heart organoids; type: cell-based; details: day 30, EMM2/1 organoids
Experimental: Real time RT-PCR. Organoids were collected at day 20, 21, 23, 25, and 30 and stored in RNAprotect (Qiagen) at −20° C. RNA was extracted using the Qiagen RNEasy Mini Kit according largely to the manufacturer's instructions. Organoids were lysed using the Bead Mill 4 Homogenizer (Fisher Scientific) at speed 2 for 30 seconds. RNA concentration was measured using a NanoDrop One (Thermo Fisher Scientific). A minimum threshold of […] was required to proceed with reverse transcription. cDNA was generated using the Quantitect Reverse Transcription Kit (Qiagen) and stored at −20° C. Primers for real time qPCR were designed using the Primer Quest tool (Integrated DNA Technologies). SYBR Green (Thermo Fisher Scientific) was used as the DNA intercalating dye and the amplifier for the reaction vessel. Real time qPCR was performed using the QuantStudio 5 Real-Time PCR system (Applied Biosystems) using a total reaction volume of 20 μL. Gene expression levels were normalized to HPRT1 expression in each independent sample. Log base 2 fold change values were obtained using the double delta CT method.

[2] = system: human heart organoids; test: Voltage imaging with di-8-ANEPPS; type: cell-based; details: 10 and 100 μM conditions
Experimental: Voltage imaging. Voltage activity within human heart organoids was assessed using di-8-ANEPPS (Thermo Fisher Scientific). Di-8-ANEPPS was solubilized in DMSO per the manufacturer's instructions. A 15 μM solution of di-8-ANEPPS was prepared in respective medium (Control, MM, EMM1, etc.). Organoids were washed twice using RPMI 1640 basal medium, then di-8-ANEPPS was added at a final concentration of 10 μM and incubated for 30 minutes at 37° C. and 5% CO2. Organoids were then washed twice using their respective medium (Control, MM, EMM1, etc.) and transferred to a chambered coverglass slide (Cellvis) using a cut 200 μL pipette tip. Videos were acquired using a Cellvivo microscope (Olympus) at 100 frames per second over 10 total seconds as an image stack at either 20× magnification (ondansetron) or 100× magnification (maturation electrophysiology). Samples were excited at 465 nm excitation and 630 nm emission was collected. Data was processed using Fiji and Microsoft Excel. Baseline F0 of fluorescence intensity F was calculated using the average of the lowest 50 intensity values in the acquired dataset. Fluorescence change ΔF/F0 was calculated using the same method as with Calcium imaging presented above. APD30 and APD90 were measured from the midpoint of the upstroke until 30% or 90% repolarization, respectively^162.
(§1) Ondansetron treatment. Ondansetron hydrochloride (Sigma) was prepared at 200 μM in DMSO and was further diluted in DMEM/F12 ((Dulbecco's Modified Eagle Medium/Nutrient Mixture F-12) before being sterile filtered via a 0.22 μm PVDF filter (Sigma). Ondansetron was applied to heart organoids at final concentrations of 1 μM, 10 μM, and 100 μM in EMM2/1 medium, and was applied from Day 9 to Day 20 of culture. Organoids were collected on Day 30 for analysis.

[3] = system: human heart organoids; test: Immunofluorescence, confocal microscopy and image analysis; type: cell-based
Experimental: Immunofluorescence. Human heart organoids were transferred from the round bottom ultra-low attachment 96 well plate to 1.5 mL microcentrifuge tubes (Eppendorf) using a cut 200 μL pipette tip (to increase tip bore diameter as to not disturb the organoid). Organoids were fixed in 4% paraformaldehyde (VWR) in PBS for 30 minutes. Following, organoids were washed using PBS-Glycine (1.5 g/L) three times for 5 minutes each. Organoids were then blocked and permeabilized using a solution containing 10% Donkey Normal Serum (Sigma), 0.5% Triton X-100 (Sigma), and 0.5% BSA (Thermo Fisher Scientific) in PBS on a thermal mixer at 300 rpm at 4° C. overnight. Organoids were then washed 3 times using PBS and incubated with primary antibodies (Table 4) within a solution containing 1% Donkey Normal Serum, 0.5% Triton X-100, and 0.5% BSA in PBS (hereafter termed “Antibody Solution”) on a thermal mixer at 300 rpm at 4° C. for 24 hours.
Following, organoids were washed 3 times for 5 minutes each using PBS. Organoids were then incubated with secondary antibodies (Table 4) in Antibody Solution on a thermal mixer at 300 rpm at 4° C. for 24 hours in the dark. Subsequently, organoids were washed 3 times for 5 minutes each using PBS and mounted on glass microscope slides (Fisher Scientific). 90 μm Polybead Microspheres (Polyscience, Inc.) were placed between the slide and a No. 1.5 coverslip (VWR) to provide support pillars such that the organoids could retain three dimensionality. Organoids were transferred to the glass microscope slides using a cut 200 uL pipette tip and mounted using a clearing solution described previously^153. T-tubule staining was performed using FITC-conjugated Wheat Germ Agglutinin (WGA) lectins (Sigma).
Confocal Microscopy and Image Analysis. […] Images were analyzed using Fiji. […] Thresholds were generated for the equalized image intensity values.
as §1
DEAB and Retinoic Acid treatment. 4-Diethylaminobenzaldehyde (DEAB) (Sigma) was prepared at 1 M in DMSO, diluted further to 10 mM using DMSO, then finally diluted to 1 mM in DMEM/F12. Retinoic Acid (RA) (Sigma) was prepared at 1 M in DMSO, and diluted to 100 μM in DMEM/F12. Diluted solutions of DEAB and RA were sterile filtered via 0.22 μm PVDF filters (Sigma). […] DEAB, RA, and DEAB+RA were applied to heart organoids from Day 20 to Day 30 of culture using the EMM2/1 strategy. Organoids were collected on Day 30 for analysis.

[4] = system: human heart organoids; test: Brightfield microscopy of organoid size and beating; type: cell-based
[5] = system: human heart organoids
[6] = system: human heart organoids; test: FlipGFP (active caspase 3) apoptosis reporter fluorescence in heart organoids; details: 10 μM, 48 hours, Day 28 to Day 30, EMM2/1 organoids
[7] = 10 μM, Day 20 to Day 30, EMM2/1 organoids

MYL2 expression relative to Untreated ([1]; 10 μM): 0.58 fold
MYL2 expression relative to Untreated ([1]; 100 μM): 0.40 fold
APD30 compared to Untreated [2]: increased
APD90 compared to Untreated [2]: increased
action potential amplitude compared to Untreated [2]: decreased
action potential frequency compared to Untreated [2]: decreased frequencies
MYL2+ area relative to Untreated ([3]; 10 μM, day 9 until day 30, EMM2/1 organoids): 0.55 fold
MYL2+ area relative to Untreated ([3]; 100 μM, day 9 until day 30, EMM2/1 organoids): 0.18 fold
structural organization of organoids compared to Untreated ([3]; 100 μM, day 30, EMM2/1 organoids): structurally less organized
MYL7+ area ([3]; 1, 10 and 100 μM, day 9 until day 30, EMM2/1 organoids): remained unchanged
beating of heart organoids over time ([4]; 100 μM condition): most marked loss in cardiac activity
beating of heart organoids over time ([4]; day 0 to day 30, all concentrations): progressive loss of beating
Compound: Cc1nccn1CC1CCc2c(c3ccccc3n2C)C1=O (stereo not shown) [ondansetron, Ondansetron hydrochloride]
apoptosis (FlipGFP fluorescence) [5]: does not contribute to apoptosis

Compound: COc1cccc2c1C(=O)c1c(O)c3c(c(O)c1C2=O)C[C@@](O)(C(=O)CO)C[C@@H]3O[C@H]1C[C@H](N)[C@H](O)[C@H](C)O1 [doxorubicin, Doxorubicin hydrochloride]
FlipGFP fluorescence (apoptosis), positive control [6]: high levels of fluorescence

Compound: CCN(CC)c1ccc(C=O)cc1 [DEAB, 4-Diethylaminobenzaldehyde]
MYL3+ area relative to Untreated organoids [3, 7]: 0.35 fold
NR2F2+ area relative to Untreated organoids [3, 7]: 0.42 fold
